Data from patent US8389557B2, “Triazole derivatives useful as Axl inhibitors” (Rigel Pharmaceuticals, Inc., priority 2005, dated 2013).
Structures can show the parent of a compound that is named as a salt.

Target: T1, Axl (Homo sapiens, UniProt P30530)
T1 construct: endogenous in cells; host or cells: HeLa cells
T1 sequence (P30530 26-894): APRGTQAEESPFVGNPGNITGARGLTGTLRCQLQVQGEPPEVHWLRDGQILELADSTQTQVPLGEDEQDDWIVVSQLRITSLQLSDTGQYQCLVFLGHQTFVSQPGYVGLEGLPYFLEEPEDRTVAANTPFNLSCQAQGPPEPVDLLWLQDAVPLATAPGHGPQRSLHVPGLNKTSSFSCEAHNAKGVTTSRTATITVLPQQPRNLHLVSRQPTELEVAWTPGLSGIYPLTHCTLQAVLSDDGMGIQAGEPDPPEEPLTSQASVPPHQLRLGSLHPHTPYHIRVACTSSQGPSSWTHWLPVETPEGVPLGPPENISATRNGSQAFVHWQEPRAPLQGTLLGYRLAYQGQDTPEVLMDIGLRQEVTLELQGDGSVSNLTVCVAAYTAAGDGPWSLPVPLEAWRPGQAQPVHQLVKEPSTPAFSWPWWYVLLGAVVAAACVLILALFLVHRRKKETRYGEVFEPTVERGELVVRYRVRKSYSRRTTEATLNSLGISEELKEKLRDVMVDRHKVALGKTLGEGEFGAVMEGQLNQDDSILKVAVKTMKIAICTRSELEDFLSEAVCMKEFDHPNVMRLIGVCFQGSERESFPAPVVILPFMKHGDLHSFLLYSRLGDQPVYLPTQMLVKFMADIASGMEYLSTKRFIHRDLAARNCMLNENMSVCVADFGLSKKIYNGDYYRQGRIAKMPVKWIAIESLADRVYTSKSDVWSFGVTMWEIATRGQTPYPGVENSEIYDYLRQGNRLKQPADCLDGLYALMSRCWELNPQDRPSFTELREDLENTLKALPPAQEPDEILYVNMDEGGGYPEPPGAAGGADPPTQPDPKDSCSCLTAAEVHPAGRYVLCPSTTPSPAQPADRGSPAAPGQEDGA
Assay: Phospho-Akt in-cell Western assay (inhibition of Axl activity)
Format: cell-based
Experimental: The compounds of the invention were tested in the following assay for their ability to inhibit Axl activity.
Phospho-Akt in-Cell Western Assay
• Cell culture plate: 96 well assay plate (Corning 3610), white, clear bottom, tissue-culture treated. • Cells: Hela cells. • Starvation medium: For Axl stimulation: 0.5% FCS (fetal calf serum) in DMEM, plus Axl/Fc (extracellular domain of AXL fused to immunoglobulin Fc region) (R&D, 154-AL) 500 ng/mL. • For EGF (epidermal growth factor) stimulation: 0.5% FCS in DMEM (Dulbecco's modified Eagles medium). • Poly-L-Lysine 0.01% solution (the working solution): 10 μg/ml, dilute In PBS (phosphate buffered saline). • Axl antibody cross-linking: • 1st: Mouse anti-Axl (R&D, MAB154). • 2nd: Biotin-SP-conjugated AffiniPure goat anti-mouse IgG (H+L) (Jackson ImmunoResearch #115-065-003). • Fixing buffer: 4% formaldehyde in PBS. • Wash buffer: 0.1% TritonX-100 in PBS. • Quenching buffer: 3% H2O2, 0.1% Azide in wash buffer, Azide and hydrogen peroxide (H2O2) are added fresh. • Blocking buffer: 5% BSA in TBST (tris buffered saline plus 0.1% Tween 20). • Primary antibody: Rabbit anti-human Phospho-Akt antibody (Cell Signaling 9271): 1×250 diluted in blocking buffer. • Secondary antibody: HRP (horse radish peroxidase)-conjugated Goat anti-Rabbit secondary, stock solution: Jackson ImmunoResearch (Goat anti-Rabbit HRP, #111-035-144) 1:1 diluted in glycerol, store at −20° C. The working solution: 1×2000 dilution of stock in blocking buffer. • Chemiluminescent working solution (Pierce, 37030): SuperSignal ELISA (enzyme linked immunosorbant assay) Pico Chemiluminescent substrate. • Crystal Violet solution: Stock: 2.5% Crystal violet in methanol, filtered and kept at ambient temperature. The working solution: dilute the stock 1:20 with PBS immediately before use. • 10% SDS: working solution: 5% SDS (sodium dodecylsulfate), diluted in PBS Methods: Day 1:
A 96 well TC (tissue culture treated) plate was coated with 10 μg/mL poly-L-Lysine at 37° C. for 30 min, washed twice with PBS, and air-dried for 5 minutes before cells were added. Hela cells were seeded at 10,000 cells/well and the cells were starved in 100 μL starvation medium containing Axl/Fc for 24 hrs.
The cells were pre-treated with test compounds by adding 100 μL of 2× test compound to the starvation medium on the cells. The cells were incubated at 37° C. for 1 hr before stimulation.
The cells were stimulated by Axl-antibody cross-linking as follows: A 5×1st/2nd Axl antibody mixture was made (37.5 μg/mL 1st/100 μg/mL 2nd) in starvation medium and nutated at 4° C. with thorough mixing for 1-2 hours for clustering. The resulting mix was warmed to 37° C. 50 μL of 5× Axl 1st/2nd of antibody cluster was added to the cells and the cells were incubated at 37° C. for 5 min.
After 5 minutes stimulation, the plate was flicked to remove medium and the plate was tapped onto paper towels. Formaldehyde (4.0% in PBS, 100 μL) was added to fix the cells and the cells were incubated at ambient temperature for 20 min without shaking.
The cells were washed with a plate washer buffer to remove the formaldehyde solution. The plate was flicked to removed excess wash buffer and tapped onto paper towels. Quenching buffer (100 μL) was added to each well and the cells were incubated at ambient temperature for 20 minutes without shaking.
The cells were washed with a plate washer buffer to remove the quenching buffer. Blocking buffer (100 μL) was added and the cells were incubated at ambient temperature for at least an hour with gentle shaking.
The cells were washed with a plate washer buffer and diluted primary antibody (50 μL) was added to each well (blocking buffer was added to the negative control wells instead). The plates were incubated overnight at 4° C. with gentle shaking.
The wash buffer was removed, diluted secondary antibody (100 μL) was added, and the cells were incubated at ambient temperature for 1 hour with gentle shaking. […]

[1] = inhibition of Axl activity, Table 1
[2] = Table 7, Hela cells, Axl antibody cross-linking stimulation, phospho-Akt chemiluminescence

| SMILES | IC50 [2] | other results |
| --- | --- | --- |
| CC(C)Oc1ccc(C(=O)n2nc(Nc3ccc(OCCN4CCCC4)cc3)nc2N)cc1 [(Ia-2), 5-amino-1-(4-(iso-propoxy)phenyl)carbonyl-3-[4-[2-(pyrrolidin-1-yl)ethoxy]phenylamino]-1H-1,2,4-triazole] | – | IC50 (inhibition of Axl activity, phospho-Akt in-cell Western assay, Table 1): < 1 µM |
| Cc1ccc(C(=O)n2nc(Nc3ccc(O)cc3)nc2N)cc1 [(Ia-4), 5-amino-3-[4-(hydroxy)phenylamino]-1-(4-methylphenyl)carbonyl-1H-1,2,4-triazole] | – | IC50 [1]: > 20 µM |
| Cc1ccccc1C(=O)n1nc(Nc2cccc(O)c2)nc1N [(Ia-6), 5-amino-3-[3-(hydroxy)phenylamino]-1-(2-(methyl)phenyl)carbonyl-1H-1,2,4-triazole] | – | IC50 [1]: > 20 µM |
| Cc1cccc(C(=O)n2nc(Nc3cccc(O)c3)nc2N)c1 [(Ia-7), 5-amino-3-[3-(hydroxy)phenylamino]-1-(3-(methyl)phenyl)carbonyl-1H-1,2,4-triazole] | – | IC50 [1]: 1 to 10 µM |
| Cc1ccc(C(=O)n2nc(Nc3cccc(O)c3)nc2N)cc1 [(Ia-15), 5-amino-3-[3-(hydroxy)phenylamino]-1-(4-(methyl)phenyl)carbonyl-1H-1,2,4-triazole] | – | IC50 [1]: 10 to 20 µM |
| CC(C)Oc1ccc(C(=O)n2nc(Nc3cccc(OCC#N)c3)nc2N)cc1 [(Ia-21), 5-amino-3-[3-(cyanomethoxy)phenylamino]-1-(4-(iso-propoxy)phenyl)carbonyl-1H-1,2,4-triazole] | – | IC50 [1]: 1 to 10 µM |
| Nc1nc(Nc2cccc(OCCN3CCOCC3)c2)nn1C(=O)c1ccccc1 [(Ia-26), 5-amino-3-[3-[2-(morpholin-4-yl)ethoxy]phenylamino]-1-phenylcarbonyl-1H-1,2,4-triazole, hydrogen chloride salt] | – | IC50 [1]: > 20 µM |
| Cc1cccc(NC(=O)n2nc(Nc3ccc(OCCN4CCCCC4)cc3)nc2N)c1 [compound 29, 5-amino-N-(3-methylphenyl)-3-[4-[2-(piperidin-1-yl)ethoxy]phenylamino]-1H-1,2,4-triazole-1-carboxamide] | < 1 µM | – |
| COc1cccc(NC(=O)n2nc(Nc3ccc(OCCN4CCCCC4)cc3)nc2N)c1 [compound 30, 5-amino-N-(3-methoxyphenyl)-3-[4-[2-(piperidin-1-yl)ethoxy]phenylamino]-1H-1,2,4-triazole-1-carboxamide] | < 1 µM | – |
| Cc1cccc(NC(=O)n2nc(Nc3ccc(OCCN4CCCC4)cc3)nc2N)c1 [compound 31, 5-amino-N-(3-methylphenyl)-3-[4-[2-(pyrrolidin-1-yl)ethoxy]phenylamino]-1H-1,2,4-triazole-1-carboxamide] | < 1 µM | – |
| COc1cccc(NC(=O)n2nc(Nc3ccc(OCCN4CCCC4)cc3)nc2N)c1 [compound 32, 5-amino-N-(3-methoxyphenyl)-3-[4-[2-(pyrrolidin-1-yl)ethoxy]phenylamino]-1H-1,2,4-triazole-1-carboxamide] | < 1 µM | – |
| COc1cc(NC(=O)n2nc(Nc3ccc(OCCN4CCCCC4)cc3)nc2N)cc(OC)c1 [compound 33, 5-amino-N-(3,5-(dimethoxy)phenyl)-3-[4-[2-(piperidin-1-yl)ethoxy]phenylamino]-1H-1,2,4-triazole-1-carboxamide] | < 1 µM | – |
| COc1cc(NC(=O)n2nc(Nc3ccc(OCCN4CCCC4)cc3)nc2N)cc(OC)c1 [compound 34, 5-amino-N-(3,5-(dimethoxy)phenyl)-3-[4-[2-(pyrrolidin-1-yl)ethoxy]phenylamino]-1H-1,2,4-triazole-1-carboxamide] | < 1 µM | – |
| Nc1nc(Nc2ccc(OCCN3CCCCC3)cc2)nn1C(=O)Nc1ccc2c(c1)OCO2 [compound 35, 5-amino-N-(1,3-benzodioxol-5-yl)-3-[4-[2-(piperidin-1-yl)ethoxy]phenylamino]-1H-1,2,4-triazole-1-carboxamide] | 1 to 10 µM | – |
| Nc1nc(Nc2ccc(OCCN3CCCC3)cc2)nn1C(=O)Nc1ccc2c(c1)OCO2 [compound 36, 5-amino-N-(1,3-benzodioxol-5-yl)-3-[4-[2-(pyrrolidin-1-yl)ethoxy]phenylamino]-1H-1,2,4-triazole-1-carboxamide] | 1 to 10 µM | – |
| Cc1ccc(NC(=O)n2nc(Nc3ccc(OCCN4CCCC4)cc3)nc2N)cc1 [compound 37, 5-amino-N-(4-methylphenyl)-3-[4-[2-(pyrrolidin-1-yl)ethoxy]phenylamino]-1H-1,2,4-triazole-1-carboxamide] | 1 to 10 µM | – |
| Cc1ccc(NC(=O)n2nc(Nc3ccc(OCCN4CCCCC4)cc3)nc2N)cc1C [compound 38, 5-amino-N-(3,4-(dimethyl)phenyl)-3-[4-[2-(piperidin-1-yl)ethoxy]phenylamino]-1H-1,2,4-triazole-1-carboxamide] | 1 to 10 µM | – |
| Cc1ccc(NC(=O)n2nc(Nc3ccc(OCCN4CCCCC4)cc3)nc2N)cc1 [compound 39, 5-amino-N-(4-methylphenyl)-3-[4-[2-(piperidin-1-yl)ethoxy]phenylamino]-1H-1,2,4-triazole-1-carboxamide] | 1 to 10 µM | – |
| COc1ccc(NC(=O)n2nc(Nc3ccc(OCCN4CCCCC4)cc3)nc2N)cc1 [compound 40, 5-amino-N-(4-(methoxy)phenyl)-3-[4-[2-(piperidin-1-yl)ethoxy]phenylamino]-1H-1,2,4-triazole-1-carboxamide] | 1 to 10 µM | – |
| CC(C)c1ccc(NC(=O)n2nc(Nc3ccc(OCCN4CCCCC4)cc3)nc2N)cc1 [compound 41, 5-amino-N-(4-(iso-propyl)phenyl)-3-[4-[2-(piperidin-1-yl)ethoxy]phenylamino]-1H-1,2,4-triazole-1-carboxamide] | 1 to 10 µM | – |
| Nc1nc(Nc2ccc(OCCN3CCCCC3)cc2)nn1C(=O)NC1CCCCC1 [compound 42, 5-amino-N-cyclohexyl-3-[4-[2-(piperidin-1-yl)ethoxy]phenylamino]-1H-1,2,4-triazole-1-carboxamide] | 1 to 10 µM | – |
| COc1ccc(NC(=O)n2nc(Nc3ccc(OCCN4CCCCC4)cc3)nc2N)cc1OC [compound 43, 5-amino-N-(3,4-(dimethoxy)phenyl)-3-[4-[2-(piperidin-1-yl)ethoxy]phenylamino]-1H-1,2,4-triazole-1-carboxamide] | 1 to 10 µM | – |
